Experimental data: PubChem BioAssay (NCI)
“And” between values parts separate entries of the source, which are not always exact repeats. Equal values may be shown once.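 Step 1: Grow cells in 96-well plates. Step 2: Expose to compound for 48 hours at 5 concentrations. Step 3: Interpolate endpoints linearly; if unreached, use highest concentration. GI50 = concentration required for 50% inhibition of growth. At the TGI there is no net growth.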

Assays:
Test in all cases: inhibition of tumour cell growth, NCI panel, 48 h
786-0 renal = test system: 786-0 renal
A498 renal = test system: A498 renal
BT-549 breast = test system: BT-549 breast
HCT-15 colon = test system: HCT-15 colon
KM12 colon = test system: KM12 colon
MALME-3M melanoma = test system: MALME-3M melanoma
NCI-H23 lung = test system: NCI-H23 lung
SNB-75 CNS = test system: SNB-75 CNS
SW-620 colon = test system: SW-620 colon
UO-31 renal = test system: UO-31 renal

| SMILES | GI50 (786-0 renal) | TGI (786-0 renal) | GI50 (A498 renal) | TGI (A498 renal) | GI50 (BT-549 breast) | TGI (BT-549 breast) | GI50 (HCT-15 colon) | TGI (HCT-15 colon) | GI50 (KM12 colon) | TGI (KM12 colon) | GI50 (MALME-3M melanoma) | TGI (MALME-3M melanoma) [µM] | GI50 (NCI-H23 lung) | TGI (NCI-H23 lung) | GI50 (SNB-75 CNS) | TGI (SNB-75 CNS) | GI50 (SW-620 colon) | TGI (SW-620 colon) | GI50 (UO-31 renal) | TGI (UO-31 renal) |
| --- | --- | --- | --- | --- | --- | --- | --- | --- | --- | --- | --- | --- | --- | --- | --- | --- | --- | --- | --- | --- |
| Clc1ccc(CSC(Cn2ccnc2)c2ccc(Cl)cc2Cl)cc1 (stereo not drawn) | 1.61 µM | 3.13 µM | 1.13 µM | 2.33 µM | 1.63 µM | 3.05 µM | 1.68 µM | 3.76 µM | 1.66 µM | 3.3 µM | 1.64 µM | 3.15 | 1.5 µM | 3.6 µM | 2.13 µM | 8.04 µM | 1.59 µM | 3.1 µM | 1.38 µM | 4.48 µM |
| CN(C)CCOc1ccc(-c2nc(-c3ccc4c(c3)CC/C4=N\O)c(-c3ccncc3)[nH]2)cc1 | 5.02 µM and 2.22 µM | 9.83 µM and 4.17 µM | 4.68 µM and 8.84 µM | 9.57 µM and 27.2 µM | 4.73 µM and 15 µM | 9.3 µM and 44.1 µM | 9.22 µM and 15.5 µM | 25 µM and 57.4 µM | 4.39 µM and 2.65 µM | 8.07 µM and 6.18 µM | 0.00596 µM and 0.0186 µM | – | 3.23 µM and 3.98 µM | 7.85 µM and 25.7 µM | 0.403 µM and 1.11 µM | 5.48 µM and 11 µM | 4.07 µM and 2.15 µM | 7.72 µM and 4.78 µM | 5.61 µM and 18.8 µM | 10 µM and 45.6 µM |
| CC[C@]12CCCN3CCc4c(n(c5ccccc45)C(=O)C1)[C@@H]32 | – | > 56.2 µM | – | > 65.9 µM | – | > 100 µM | – | > 100 µM | – | > 100 µM | – | > 67.9 | – | > 100 µM | – | 78.4 µM | – | > 65 µM | – | > 100 µM |
| COC(=O)[C@@]12C(=O)C=CC(=O)[C@@H]1C1C(=CC2COC(C)=O)O[C@@H]2OC3(CCCCC3)O[C@H]12 (stereo partly drawn) | – | 18.7 µM | – | 37.4 µM | – | 26 µM | – | 18.7 µM | – | 26.5 µM | – | 30.2 | – | 35.9 µM | – | 26.4 µM | – | 12.1 µM | – | 28.3 µM |
| COc1cccc2c1C(=O)C=CC2=O | – | 23.9 µM | – | 29.9 µM | – | 29.1 µM | – | 24.2 µM | – | 25 µM | – | 30.6 | – | 30 µM | – | 29.9 µM | – | 23.6 µM | – | 28.9 µM |
| CC(=O)NCCc1c2c(c3nccc4c3c1Nc1ccccc1-4)OCS2 | 3.66 µM | 28.9 µM | 0.698 µM | 19.1 µM | 6.13 µM | 19.7 µM | 1.26 µM | 8.77 µM | 2.39 µM | 10.8 µM | 7.28 µM | 24.7 | 1.52 µM | 12.3 µM | 15.3 µM | 70.4 µM | 0.226 µM | 8.15 µM | 1.05 µM | 6.37 µM |
| CCOC(=O)c1ccc2[nH]c(-c3ccc(S(=O)(=O)F)cc3)cc(=O)c2c1 | – | > 100 µM | – | 68 µM | – | > 100 µM | – | > 100 µM | – | > 100 µM | – | 90.6 | – | 47 µM | – | > 100 µM | – | > 100 µM | – | > 100 µM |
| O=C1c2ccccc2-c2c1c1ccccc1c(=O)n2CCCCNCCCn1c2c(c3ccccc3c1=O)C(=O)c1ccccc1-2 | 0.0318 µM | 0.699 µM | 1.49 µM | 5.64 µM | 1.34 µM | 4.15 µM | 0.143 µM | 0.624 µM | 0.31 µM | 2.45 µM | 1.41 µM | 6.03 | 0.461 µM | 2.53 µM | 6.45 µM | 28.3 µM | 0.022 µM | 0.528 µM | 0.0557 µM | 7.23 µM |
| CC12CCC3C(CCC4Cc5[nH]c6ccccc6c5CC43C)C1CCC2O (stereo not drawn) | 0.835 µM | – | 0.696 µM | 6.44 µM | 2.65 µM | > 100 µM | 0.695 µM | > 100 µM | 2.8 µM | 8.61 µM | 2.92 µM | > 100 | 1.81 µM | > 24.8 µM | 0.574 µM | > 100 µM | 0.497 µM | > 100 µM | 4.37 µM | > 100 µM |
| Nc1c(C(=O)c2cccc(CCCN3CCOCC3)c2)cnn1-c1ccc(F)cc1 | > 25 µM | > 25 µM | > 17.6 µM | > 25 µM | > 25 µM | > 25 µM | > 25 µM | > 25 µM | > 25 µM | > 25 µM | > 25 µM | > 25 | > 25 µM | > 25 µM | > 25 µM | > 25 µM | > 25 µM | > 25 µM | > 25 µM | > 25 µM |
| COc1cc(C(=O)/C=C/c2c(C)n([O-])c3ccc(C)cc3[n+]2=O)cc(OC)c1OC | 7.62 µM | 21.7 µM | 14.5 µM | 38.6 µM | 8.06 µM | 33.2 µM | 1.8 µM | 4.48 µM | 13 µM | 27.6 µM | 2.24 µM | 5.2 | 10.4 µM | 26.4 µM | 14.5 µM | 31.7 µM | 1.53 µM | 3.02 µM | 4.63 µM | 10.1 µM |
| Cc1cc2nc(C(C)C(=O)c3ccc(Cl)cc3)c(=O)[nH]c2cc1C (stereo not drawn) | – | 92.3 µM | – | > 100 µM | – | > 100 µM | – | > 100 µM | – | > 100 µM | – | > 100 | – | > 100 µM | – | > 100 µM | – | > 100 µM | – | > 100 µM |
| O=[N+]([O-])c1ccc(S(=O)(=O)Cc2ccccc2)c([N+](=O)[O-])c1 | – | 2.98 µM | – | 31.1 µM | – | 5.12 µM | – | 3.94 µM | – | 23.7 µM | – | 6.2 | – | 3.52 µM | – | 21.2 µM | – | 20.1 µM | – | 2.95 µM |
| COc1cc(NS(C)(=O)=O)ccc1Nc1c2ccc([N+](=O)[O-])cc2nc2c(C)cccc12 | 0.362 µM | 6.04 µM | 0.226 µM | 2.92 µM | 1.45 µM | 7.45 µM | 1.38 µM | 4.32 µM | 0.814 µM | 8.15 µM | 0.717 µM | 7.07 | 0.567 µM | 9.26 µM | 0.311 µM | 7.48 µM | 0.349 µM | 12.2 µM | 1.22 µM | 11.4 µM |
| CCSCC1CC(O)(c2ccccc2)C(c2ccccc2)C(c2ccc(Cl)cc2)O1 (stereo not drawn) | 1.64 µM | 3.26 µM | 1.79 µM | 3.41 µM | 1.76 µM | 3.63 µM | 1.69 µM | 4.5 µM | 2.56 µM | 6.92 µM | 1.58 µM | 3.18 | 1.88 µM | 3.94 µM | 1.75 µM | 4.72 µM | 1.82 µM | 4.39 µM | 1.07 µM | 2.43 µM |
